In the supplement of paper PMC11919725:

Key:
[1] = system: Jurkat; assay: metabolic activity relative to DMSO, 18 h (ratio); higher = more viable
Procedure, shortened: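 Metabolic activity was expressed relative to the mean of vehicle control wells. Jurkat cells or primary CD4+/CD8+ T cells, either naive or activated for 48 h with CD3/CD28 Dynabeads, were exposed to compound from 1 nM to 10 µM in log10 steps for 18 h at 37 °C, 5% CO2. Aliquots of 100 µl of suspension were moved to 96-well plates containing alamarBlue (10% v/v final), and fluorescence was read after 3.5 h on a FluoStar Omega at excitation 544 nm and emission 584 nm.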

[2] = system: Jurkat; assay: cytotoxicity relative to DMSO, 18 h (ratio); higher = less cell death (drugs called cytotoxic fall below 1)
Procedure, shortened: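 Jurkat cells or primary CD4+/CD8+ T cells, either naive or activated for 48 h with CD3/CD28 Dynabeads, were exposed to compound from 1 nM to 10 µM in log10 steps for 18 h at 37 °C, 5% CO2. Aliquots of 100 µl of suspension were then moved to 96-well plates containing IncuCyte Cytotox Dye at 250 nM final. Cytotoxicity was read by IncuCyte fluorescence imaging, with signals corrected for confluency and normalised to the mean of control wells.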

[3] = system: Jurkat; assay: confluency relative to DMSO, 18 h (ratio); higher = more viable
Procedure, shortened: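 Jurkat or primary CD4+/CD8+ T cells (naive, or activated 48 h with CD3/CD28 Dynabeads) were treated 18 h with compound at 1 nM–10 µM (log10 steps) at 37 °C, 5% CO2. Then 100 µl of suspension went into 96-well plates with IncuCyte Cytotox Dye and alamarBlue. Confluency came from IncuCyte phase-contrast imaging (×10, five images per well, hourly over 3 h) using the Basic Analyzer. Values are normalised to mean DMSO controls.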

O=C1NC(=O)C(=Cc2ccc3nccc(-c4ccncc4)c3c2)S1
metabolic activity ([1]; 1 nM): 0.992
metabolic activity ([1]; 10 nM): 0.956
metabolic activity ([1]; 100 nM): 0.964
metabolic activity ([1]; 1000 nM): 0.723
metabolic activity ([1]; 10000 nM): 0.426
cytotoxicity ([2]; 1 nM): 0.944
cytotoxicity ([2]; 10 nM): 0.984
cytotoxicity ([2]; 100 nM): 0.956
cytotoxicity ([2]; 1000 nM): 0.762
cytotoxicity ([2]; 10000 nM): 0.804
confluency ([3]; 1 nM): 0.989
confluency ([3]; 10 nM): 0.988
confluency ([3]; 100 nM): 0.968
confluency ([3]; 1000 nM): 0.812
confluency ([3]; 10000 nM): 1.01

O=C(O)c1ccc(CN2CCC(CNC3CC3c3ccccc3)CC2)cc1 (stereo not given)
metabolic activity ([1]; 1 nM): 1.09
metabolic activity ([1]; 10 nM): 1.06
metabolic activity ([1]; 100 nM): 1.09
metabolic activity ([1]; 1000 nM): 1.08
metabolic activity ([1]; 10000 nM): 1.02
cytotoxicity ([2]; 1 nM): 1
cytotoxicity ([2]; 10 nM): 1.04
cytotoxicity ([2]; 100 nM): 1.1
cytotoxicity ([2]; 1000 nM): 1.04
cytotoxicity ([2]; 10000 nM): 1.03
confluency ([3]; 1 nM): 0.954
confluency ([3]; 10 nM): 0.956
confluency ([3]; 100 nM): 0.996
confluency ([3]; 1000 nM): 0.987
confluency ([3]; 10000 nM): 0.993

CC(C)CC(=O)Nc1n[nH]c2c1CN(C(=O)C1CCN(C)CC1)C2(C)C
metabolic activity ([1]; 1 nM): 1.17
metabolic activity ([1]; 10 nM): 1.2
metabolic activity ([1]; 100 nM): 1.26
metabolic activity ([1]; 1000 nM): 1.24
metabolic activity ([1]; 10000 nM): 0.438
cytotoxicity ([2]; 1 nM): 0.914
cytotoxicity ([2]; 10 nM): 0.908
cytotoxicity ([2]; 100 nM): 1.05
cytotoxicity ([2]; 1000 nM): 1.07
cytotoxicity ([2]; 10000 nM): 0.406
confluency ([3]; 1 nM): 0.887
confluency ([3]; 10 nM): 0.876
confluency ([3]; 100 nM): 0.978
confluency ([3]; 1000 nM): 0.97
confluency ([3]; 10000 nM): 0.591

Cc1c(Cn2c(C)nc3c(C(=O)O)cc(N4CCOCC4)cc32)cccc1C(F)(F)F
metabolic activity ([1]; 1 nM): 0.862
metabolic activity ([1]; 10 nM): 0.891
metabolic activity ([1]; 100 nM): 1
metabolic activity ([1]; 1000 nM): 1.25
metabolic activity ([1]; 10000 nM): 1.08
cytotoxicity ([2]; 1 nM): 0.881
cytotoxicity ([2]; 10 nM): 0.947
cytotoxicity ([2]; 100 nM): 1.05
cytotoxicity ([2]; 1000 nM): 1.14
cytotoxicity ([2]; 10000 nM): 1.01
confluency ([3]; 1 nM): 0.923
confluency ([3]; 10 nM): 0.973
confluency ([3]; 100 nM): 1.05
confluency ([3]; 1000 nM): 1.03
confluency ([3]; 10000 nM): 0.998

COc1ccc(-c2cc3c(C)nc(N)nc3n(C3CCC(OCCO)CC3)c2=O)cn1 (stereo not given)
metabolic activity ([1]; 1 nM): 1.08
metabolic activity ([1]; 10 nM): 1.01
metabolic activity ([1]; 100 nM): 0.734
metabolic activity ([1]; 1000 nM): 0.562
metabolic activity ([1]; 10000 nM): 0.402
cytotoxicity ([2]; 1 nM): 1.02
cytotoxicity ([2]; 10 nM): 0.94
cytotoxicity ([2]; 100 nM): 0.882
cytotoxicity ([2]; 1000 nM): 0.666
cytotoxicity ([2]; 10000 nM): 0.721
confluency ([3]; 1 nM): 1.01
confluency ([3]; 10 nM): 0.951
confluency ([3]; 100 nM): 0.927
confluency ([3]; 1000 nM): 0.741
confluency ([3]; 10000 nM): 0.9

COc1ccc(Cn2ccc3ccc(C(=O)NO)cc32)cc1
metabolic activity ([1]; 1 nM): 1.03
metabolic activity ([1]; 10 nM): 0.992
metabolic activity ([1]; 100 nM): 1.02
metabolic activity ([1]; 1000 nM): 1.01
metabolic activity ([1]; 10000 nM): 1.02
cytotoxicity ([2]; 1 nM): 0.955
cytotoxicity ([2]; 10 nM): 0.926
cytotoxicity ([2]; 100 nM): 0.954
cytotoxicity ([2]; 1000 nM): 1.04
cytotoxicity ([2]; 10000 nM): 0.938
confluency ([3]; 1 nM): 1.01
confluency ([3]; 10 nM): 1.01
confluency ([3]; 100 nM): 1
confluency ([3]; 1000 nM): 1.01
confluency ([3]; 10000 nM): 1

COCCN1CCN(Cc2ccc(-c3n[nH]c4c3C(=O)c3c(NC(=O)NN5CCOCC5)cccc3-4)cc2)CC1.Cl.Cl
metabolic activity ([1]; 1 nM): 1.05
metabolic activity ([1]; 10 nM): 0.968
metabolic activity ([1]; 100 nM): 0.223
metabolic activity ([1]; 1000 nM): 0.221
metabolic activity ([1]; 10000 nM): 0.198
cytotoxicity ([2]; 1 nM): 0.969
cytotoxicity ([2]; 10 nM): 0.715
cytotoxicity ([2]; 100 nM): 0.581
cytotoxicity ([2]; 1000 nM): 0.639
cytotoxicity ([2]; 10000 nM): 0.62
confluency ([3]; 1 nM): 0.976
confluency ([3]; 10 nM): 0.788
confluency ([3]; 100 nM): 0.898
confluency ([3]; 1000 nM): 0.951
confluency ([3]; 10000 nM): 0.909

Cc1sc2c(c1C)C(c1ccc(Cl)cc1)=NC(CC(=O)OC(C)(C)C)c1nnc(C)n1-2 (single isomer, unassigned; (+)) [(+)-JQ-1]
metabolic activity ([1]; 1 nM): 1.05
metabolic activity ([1]; 10 nM): 0.989
metabolic activity ([1]; 100 nM): 1.13
metabolic activity ([1]; 1000 nM): 1.1
metabolic activity ([1]; 10000 nM): 0.987
cytotoxicity ([2]; 1 nM): 1.09
cytotoxicity ([2]; 10 nM): 0.985
cytotoxicity ([2]; 100 nM): 1.22
cytotoxicity ([2]; 1000 nM): 1.07
cytotoxicity ([2]; 10000 nM): 0.995
confluency ([3]; 1 nM): 1.02
confluency ([3]; 10 nM): 0.962
confluency ([3]; 100 nM): 1.02
confluency ([3]; 1000 nM): 1.01
confluency ([3]; 10000 nM): 1.02

Nc1ncn(C2OC(CO)C(O)C2O)c(=O)n1 (stereo not given) [5-Azacytidine]
metabolic activity ([1]; 1 nM): 1.05
metabolic activity ([1]; 10 nM): 1.03
metabolic activity ([1]; 100 nM): 1.03
metabolic activity ([1]; 1000 nM): 0.994
metabolic activity ([1]; 10000 nM): 0.344
cytotoxicity ([2]; 1 nM): 0.896
cytotoxicity ([2]; 10 nM): 0.89
cytotoxicity ([2]; 100 nM): 1.12
cytotoxicity ([2]; 1000 nM): 1
cytotoxicity ([2]; 10000 nM): 1.12
confluency ([3]; 1 nM): 0.777
confluency ([3]; 10 nM): 0.792
confluency ([3]; 100 nM): 0.976
confluency ([3]; 1000 nM): 0.919
confluency ([3]; 10000 nM): 0.961

O=c1[nH]cc(F)c(=O)[nH]1 [5-Fluorouracil]
metabolic activity ([1]; 1 nM): 1.03
metabolic activity ([1]; 10 nM): 0.913
metabolic activity ([1]; 100 nM): 0.967
metabolic activity ([1]; 1000 nM): 0.999
metabolic activity ([1]; 10000 nM): 0.971
cytotoxicity ([2]; 1 nM): 0.997
cytotoxicity ([2]; 10 nM): 0.931
cytotoxicity ([2]; 100 nM): 0.995
cytotoxicity ([2]; 1000 nM): 0.946
cytotoxicity ([2]; 10000 nM): 0.985
confluency ([3]; 1 nM): 1
confluency ([3]; 10 nM): 0.981
confluency ([3]; 100 nM): 0.992
confluency ([3]; 1000 nM): 0.978
confluency ([3]; 10000 nM): 0.996

O=C(NO)c1cnc(NC2(c3ccccc3)CC2)nc1 [ACY738]
metabolic activity ([1]; 1 nM): 0.936
metabolic activity ([1]; 10 nM): 0.962
metabolic activity ([1]; 100 nM): 1.1
metabolic activity ([1]; 1000 nM): 0.862
metabolic activity ([1]; 10000 nM): 0.713
cytotoxicity ([2]; 1 nM): 0.969
cytotoxicity ([2]; 10 nM): 0.95
cytotoxicity ([2]; 100 nM): 1.15
cytotoxicity ([2]; 1000 nM): 1.05
cytotoxicity ([2]; 10000 nM): 0.982
confluency ([3]; 1 nM): 1.01
confluency ([3]; 10 nM): 0.994
confluency ([3]; 100 nM): 1.03
confluency ([3]; 1000 nM): 0.995
confluency ([3]; 10000 nM): 0.999

Cc1csc(-c2nnc(Nc3ccc(Oc4ncccc4-c4ccnc(N)n4)cc3)c3ccccc23)c1 [AMG-900]
metabolic activity ([1]; 1 nM): 0.99
metabolic activity ([1]; 10 nM): 0.973
metabolic activity ([1]; 100 nM): 1.02
metabolic activity ([1]; 1000 nM): 0.871
metabolic activity ([1]; 10000 nM): 0.865
cytotoxicity ([2]; 1 nM): 0.919
cytotoxicity ([2]; 10 nM): 0.897
cytotoxicity ([2]; 100 nM): 0.856
cytotoxicity ([2]; 1000 nM): 0.848
cytotoxicity ([2]; 10000 nM): 0.823
confluency ([3]; 1 nM): 0.926
confluency ([3]; 10 nM): 0.91
confluency ([3]; 100 nM): 0.92
confluency ([3]; 1000 nM): 0.874
confluency ([3]; 10000 nM): 0.878

CC(C)C(C(=O)Nc1ccc(C(=O)NO)cc1)c1ccccc1 (stereo not given) [AR-42]
metabolic activity ([1]; 1 nM): 0.942
metabolic activity ([1]; 10 nM): 1.02
metabolic activity ([1]; 100 nM): 0.934
metabolic activity ([1]; 1000 nM): 0.577
metabolic activity ([1]; 10000 nM): 0.695
cytotoxicity ([2]; 1 nM): 0.947
cytotoxicity ([2]; 10 nM): 1.02
cytotoxicity ([2]; 100 nM): 0.892
cytotoxicity ([2]; 1000 nM): 0.807
cytotoxicity ([2]; 10000 nM): 0.811
confluency ([3]; 1 nM): 0.972
confluency ([3]; 10 nM): 0.984
confluency ([3]; 100 nM): 0.941
confluency ([3]; 1000 nM): 0.97
confluency ([3]; 10000 nM): 0.97

Cc1ncc(-c2ccnc(Nc3ccc(S(C)(=O)=O)cc3)n2)n1C(C)C [AZD-5438]
metabolic activity ([1]; 1 nM): 1.08
metabolic activity ([1]; 10 nM): 1.14
metabolic activity ([1]; 100 nM): 1.14
metabolic activity ([1]; 1000 nM): 1.08
metabolic activity ([1]; 10000 nM): 0.124
cytotoxicity ([2]; 1 nM): 0.927
cytotoxicity ([2]; 10 nM): 0.91
cytotoxicity ([2]; 100 nM): 0.951
cytotoxicity ([2]; 1000 nM): 1.03
cytotoxicity ([2]; 10000 nM): 1.02
confluency ([3]; 1 nM): 1.06
confluency ([3]; 10 nM): 1.12
confluency ([3]; 100 nM): 0.972
confluency ([3]; 1000 nM): 0.991
confluency ([3]; 10000 nM): 0.944
